Measurements from patent US9469652B2, “ERK inhibitors” (Eli Lilly and Company, priority 2014, dated 2016).

Experiments:
[1] = tested on: RSK1 phosphorylation in HCT116 tumor xenograft; test: In Vivo Target Inhibition (IVTI) Assay (pRSK1 ELISA Assay); set-up: species or system female athymic nude mice; conditions: oral dosing
Description: The purpose of this assay is to measure the ability of a test compound to inhibit ERK1/2 substrate phosphorylation in an animal model Implant female athymic nude mice (22-25 g) from Harlan Laboratories with 5×10e^6 HCT116 colorectal cancer cells (ATCC, #CCL-247) subcutaneously in the right flank region in 200 μL of 1:1 Hank's Balanced Salt Solution (HBSS)+Matrigel solution. Measure tumor growth and body weight twice per week beginning the seventh day after the implantation. When tumor sizes reach 300-500 mm^3, randomize animals and group into groups of five animals. […]
Pulverize tumors in liquid nitrogen and lyse in 1× lysis buffer (MSD, #R60TX-3) containing 1× halt protease & phosphatase inhibitor cocktail (Thermo Scientific, #0861281), 1 mM phenylmethanesulfonyl fluoride (PMSF) (Sigma, #93482-50ML-F) and 1 μM sodium metavanadate (Sigma, #590088) using Matrix D beads (MP Biomedical, #6913-500) in a FastPrep-24™ Cell Disrupter machine (MP Biomedical) in a cold room (4° C.). […] Cool plate to room temperature and measure the absorbance at or near 562 nm on a plate reader (Envision plate reader from Perkin Elmer). Subtract the average 562 nm absorbance measurement of the blank standard replicates from the 562 nm measurements of all other individual standard and unknown (cell or tumor lysate) sample replicates. […]

[2] = tested on: human non-small cell lung cancer cells CALU-6; test: Xenograft tumor model CALU-6; assay type: in vivo, female athymic nude mice; conditions: oral gavage; for Delta T/C % or Regr %: negative = regression
Description: The purpose of this assay is to measure reduction in tumor volume in response to test compound administration. Expand human colorectal cancer cells HCT116 (ATCC, # CCL-247) in culture, harvest and inject 5×10e^6 cells in 200 μL of 1:1 HBSS+matrigel solution subcutaneously on to the rear right flank of female athymic nude mice (22-25 g, Harlan Laboratories). Expand human pancreatic cancer cells MIA PACA-2 (ATCC, # CRL-1420) or human non-small cell lung cancer cells CALU-6 (ATCC, #HTB-56) or human colorectal cancer cells COLO-205 (ATCC, #CCL-222) in culture, harvest and inject 5×10e^6 cells in 200 μL of 1:1 HBSS+matrigel solution subcutaneously on to the rear right flank of female athymic nude mice (22-25 g, Harlan Laboratories). Measure tumor growth and body weight twice per week beginning the seventh day after the implantation. When tumor sizes reach 200-400 mm^3, randomize animals and group into groups of eight to ten animals. Prepare test compound in an appropriate vehicle (vehicle: 1% HEC/0.25% Tween 80/0.05% Antifoam) and administer by oral gavage for 14 to 21 days. Tumor response is determined by tumor volume measurement performed twice a week during the course of treatment. Body weight is taken as a general measure of toxicity.
A compound within the scope of invention is tested in this assay run substantially as above.

Cn1nccc1Nc1nccc(-c2cc3c(s2)C(C)(C)N(CCN2CCOCC2)C3=O)n1 [Example 1, 6,6-Dimethyl-2-{2-[(1-methyl-1H-pyrazol-5-yl)amino]pyrimidin-4-yl}-5-[2-(morpholin-4-yl)ethyl]-5,6-dihydro-4H-thieno[2,3-c]pyrrol-4-one]
TED50, pRSK1 inhibition in tumor [1]: 16 mg/kg | TGI % ([2]; 12.5 mg/kg QD): 78% | Delta T/C % or Regr % ([2]; 12.5 mg/kg QD): 22% | TGI % ([2]; 25 mg/kg QD): 86% | Delta T/C % or Regr % ([2]; 25 mg/kg QD): 14% | TGI % ([2]; 50 mg/kg QD): 131% | Delta T/C % or Regr % ([2]; 50 mg/kg QD): −31% | TGI % ([2]; 100 mg/kg QD): 177% | Delta T/C % or Regr % ([2]; 100 mg/kg QD): −77%
